From patent US11306101B2 (Celgene Corporation, priority 2019, dated 2022)

Target: T1, CK1α (Homo sapiens, UniProt P48729+Q96SW2)
T1 construct: expressed in transfected cells
Assay: CK1α ePL degradation assay in MDS-L cells
Format: cell-based
Settings: MDS-L cells expressing ePL-tagged CK1α; for DC50: concentration giving 50% CK1α degradation vs DMSO control; for Y: lowest measured CK1α level normalized to DMSO control
In short: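 MDS-L cells treated with compound in a 10-point, 3-fold series from 10 μM to 0.0005 μM at 37° C, 5% CO2 for the indicated times; CK1α measured by InCELL Hunter enzyme-fragment luminescence. Levels normalized to DMSO as percent of control; lowest level reached taken as Y value.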

T1 sequence (P48729 whole entry): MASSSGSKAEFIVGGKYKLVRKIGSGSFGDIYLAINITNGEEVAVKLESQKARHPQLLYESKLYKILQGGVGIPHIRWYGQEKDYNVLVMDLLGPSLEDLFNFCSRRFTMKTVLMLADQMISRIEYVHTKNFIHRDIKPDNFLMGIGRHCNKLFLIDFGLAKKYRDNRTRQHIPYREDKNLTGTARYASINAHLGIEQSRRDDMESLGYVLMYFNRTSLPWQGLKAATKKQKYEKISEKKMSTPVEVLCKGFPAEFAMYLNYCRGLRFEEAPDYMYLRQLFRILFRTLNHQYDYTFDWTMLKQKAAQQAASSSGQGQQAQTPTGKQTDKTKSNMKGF
T1 sequence (Q96SW2 whole entry): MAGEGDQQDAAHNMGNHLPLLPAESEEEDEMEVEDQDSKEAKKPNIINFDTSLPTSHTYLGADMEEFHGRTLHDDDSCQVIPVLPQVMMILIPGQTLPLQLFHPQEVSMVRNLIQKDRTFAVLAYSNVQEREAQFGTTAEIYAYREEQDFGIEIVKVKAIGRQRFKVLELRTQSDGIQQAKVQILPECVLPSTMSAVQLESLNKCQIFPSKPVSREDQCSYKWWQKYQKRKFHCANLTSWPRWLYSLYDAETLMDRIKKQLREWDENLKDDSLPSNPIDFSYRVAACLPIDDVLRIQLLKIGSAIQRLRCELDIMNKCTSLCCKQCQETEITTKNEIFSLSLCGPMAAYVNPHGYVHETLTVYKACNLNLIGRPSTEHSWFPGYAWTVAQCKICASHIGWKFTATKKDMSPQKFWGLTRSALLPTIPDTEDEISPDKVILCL
T1 sequence (Q16531 whole entry partner): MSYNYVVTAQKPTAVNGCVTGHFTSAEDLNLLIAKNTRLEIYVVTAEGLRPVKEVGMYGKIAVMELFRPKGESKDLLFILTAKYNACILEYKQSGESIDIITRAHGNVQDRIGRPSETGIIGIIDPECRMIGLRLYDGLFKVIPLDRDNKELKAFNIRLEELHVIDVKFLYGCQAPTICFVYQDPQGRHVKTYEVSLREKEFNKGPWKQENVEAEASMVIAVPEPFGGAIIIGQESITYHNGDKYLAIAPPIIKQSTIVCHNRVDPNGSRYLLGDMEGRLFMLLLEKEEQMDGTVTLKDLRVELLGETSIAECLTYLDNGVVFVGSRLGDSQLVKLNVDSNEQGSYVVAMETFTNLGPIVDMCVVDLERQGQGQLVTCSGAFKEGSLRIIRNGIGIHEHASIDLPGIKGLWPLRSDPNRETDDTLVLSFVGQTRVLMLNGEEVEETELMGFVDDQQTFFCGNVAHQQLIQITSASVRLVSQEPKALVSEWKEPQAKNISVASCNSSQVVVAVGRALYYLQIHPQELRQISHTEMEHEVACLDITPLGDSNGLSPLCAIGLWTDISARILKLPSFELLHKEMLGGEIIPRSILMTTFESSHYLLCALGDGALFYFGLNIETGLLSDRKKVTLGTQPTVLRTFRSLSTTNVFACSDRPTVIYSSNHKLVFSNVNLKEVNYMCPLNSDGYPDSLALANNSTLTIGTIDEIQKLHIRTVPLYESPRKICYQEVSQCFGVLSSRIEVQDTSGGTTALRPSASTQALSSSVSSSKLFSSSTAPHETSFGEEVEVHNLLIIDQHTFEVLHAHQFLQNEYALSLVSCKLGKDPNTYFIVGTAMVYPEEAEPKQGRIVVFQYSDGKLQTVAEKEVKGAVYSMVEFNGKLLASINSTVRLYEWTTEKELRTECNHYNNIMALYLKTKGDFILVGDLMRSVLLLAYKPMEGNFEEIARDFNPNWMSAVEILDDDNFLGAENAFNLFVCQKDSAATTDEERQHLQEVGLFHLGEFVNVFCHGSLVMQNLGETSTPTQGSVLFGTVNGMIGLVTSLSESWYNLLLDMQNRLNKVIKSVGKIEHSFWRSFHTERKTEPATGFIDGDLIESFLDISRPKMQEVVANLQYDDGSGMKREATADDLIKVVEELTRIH

| Compound | DC50 | Y |
| --- | --- | --- |
| C[C@H](NC(=O)c1ccc2c(c1)CN(C1CCC(=O)NC1=O)C2=O)c1ccc(F)cc1 (stereo partly drawn) [Example 16] | < 0.1 µM | ** (a Y value (shown as**) of 20%<Y≤35%) |
| O=C1CCC(N2Cc3c(ccc(C(=O)N[C@H](c4ccc(F)cc4)C(F)(F)F)c3F)C2=O)C(=O)N1 (stereo partly drawn) [Example 96, 2-(2,6-dioxopiperidin-3-yl)-4-fluoro-1-oxo-N-((R)-2,2,2-trifluoro-1-(4-fluorophenyl)ethyl)isoindoline-5-carboxamide] | < 0.1 µM | * (a Y value (shown as *) of 0<Y≤20%) |
| CC1(C)CCC([C@@H](NC(=O)c2ccc3c(c2)CN(C2CCC(=O)NC2=O)C3=O)C(F)(F)F)CC1 (stereo partly drawn) [Example 46, N-((R)-1-(4,4-dimethylcyclohexyl)-2,2,2-trifluoroethyl)-2-(2,6-dioxopiperidin-3-yl)-1-oxoisoindoline-5-carboxamide] | 0.1 to 0.5 µM | * (a Y value (shown as *) of 0<Y≤20%) |
| O=C1CCC(N2Cc3cc(C(=O)N[C@H](c4ccc(F)c(F)c4)C(F)(F)F)ccc3C2=O)C(=O)N1 (stereo partly drawn) [Example 73, N-((R)-1-(3,4-difluorophenyl)-2,2,2-trifluoroethyl)-2-(2,6-dioxopiperidin-3-yl)-1-oxoisoindoline-5-carboxamide] | < 0.1 µM | * (a Y value (shown as *) of 0<Y≤20%) |
| O=C1CCC(N2Cc3c(ccc(C(=O)N[C@H](c4ccccc4C(F)(F)F)C(F)(F)F)c3F)C2=O)C(=O)N1 (stereo partly drawn) [Example 98, 2-(2,6-dioxopiperidin-3-yl)-4-fluoro-1-oxo-N-((R)-2,2,2-trifluoro-1-(2-(trifluoromethyl)phenyl)ethyl)isoindoline-5-carboxamide] | < 0.1 µM | * (a Y value (shown as *) of 0<Y≤20%) |
| CC(C)(CO)[C@@H](NC(=O)c1ccc2c(c1)CN(C1CCC(=O)NC1=O)C2=O)C(F)(F)F (stereo partly drawn) [Example 95, 2-(2,6-dioxopiperidin-3-yl)-1-oxo-N-((R)-1,1,1-trifluoro-4-hydroxy-3,3-dimethylbutan-2-yl)isoindoline-5-carboxamide] | 0.5 to 1 µM | ** (a Y value (shown as**) of 20%<Y≤35%) |
| Cc1ccc([C@H](C)NC(=O)c2ccc3c(c2)CN(C2CCC(=O)NC2=O)C3=O)cc1 (stereo partly drawn) [Example 7] | < 0.1 µM | * (a Y value (shown as *) of 0<Y≤20%) |
| N#Cc1ccc([C@@H](NC(=O)c2ccc3c(c2)CN(C2CCC(=O)NC2=O)C3=O)C(F)(F)F)cc1 (stereo partly drawn) [Example 63, N-((R)-1-(4-cyanophenyl)-2,2,2-trifluoroethyl)-2-(2,6-dioxopiperidin-3-yl)-1-oxoisoindoline-5-carboxamide] | < 0.1 µM | * (a Y value (shown as *) of 0<Y≤20%) |
| C[C@H](NC(=O)c1ccc2c(c1)CN(C1CCC(=O)NC1=O)C2=O)c1ccccn1 (stereo partly drawn) [Example 10] | 0.1 to 0.5 µM | ** (a Y value (shown as**) of 20%<Y≤35%) |
| O=C1CC[C@H](N2Cc3cc(C(=O)N[C@H](c4ncccc4Cl)C(F)(F)F)ccc3C2=O)C(=O)N1 [Example 173, N-((R)-1-(3-chloropyridin-2-yl)-2,2,2-trifluoroethyl)-2-((S)-2,6-dioxopiperidin-3-yl)-1-oxoisoindoline-5-carboxamide] | < 0.1 µM | * (a Y value (shown as *) of 0<Y≤20%) |
| C[C@H](NC(=O)c1ccc2c(c1)CN(C1CCC(=O)NC1=O)C2=O)C1CC1 (stereo partly drawn) [Example 5] | 0.1 to 0.5 µM | ** (a Y value (shown as**) of 20%<Y≤35%) |
| O=C1CCC(N2Cc3cc(C(=O)N[C@H](C4CCC(F)(F)CC4)C(F)(F)F)ccc3C2=O)C(=O)N1 (stereo partly drawn) [Example 45, N-((R)-1-(4,4-difluorocyclohexyl)-2,2,2-trifluoroethyl)-2-(2,6-dioxopiperidin-3-yl)-1-oxoisoindoline-5-carboxamide] | 0.1 to 0.5 µM | * (a Y value (shown as *) of 0<Y≤20%) |
| O=C1CCC(N2Cc3cc(C(=O)N[C@@H](CC(F)(F)F)c4ccc(F)cc4)ccc3C2=O)C(=O)N1 (stereo partly drawn) [Example 123, 2-(2,6-dioxopiperidin-3-yl)-1-oxo-N-((S)-3,3,3-trifluoro-1-(4-fluorophenyl)propyl)isoindoline-5-carboxamide] | 0.1 to 0.5 µM | ** (a Y value (shown as**) of 20%<Y≤35%) |
| O=C1CCC(N2Cc3cc(C(=O)N[C@H](c4ccccc4Cl)C(F)(F)F)ccc3C2=O)C(=O)N1 (stereo partly drawn) [Example 50, N-((R)-1-(2-chlorophenyl)-2,2,2-trifluoroethyl)-2-(2,6-dioxopiperidin-3-yl)-1-oxoisoindoline-5-carboxamide] | < 0.1 µM | * (a Y value (shown as *) of 0<Y≤20%) |

Further lines, results first:

| DC50 | Y | Compound |
| --- | --- | --- |
| < 0.1 µM | * (a Y value (shown as *) of 0<Y≤20%) | CC(F)(F)C(NC(=O)c1ccc2c(c1)CN(C1CCC(=O)NC1=O)C2=O)c1ccc(F)cc1 (stereo not drawn) [Example 174, N-(2,2-difluoro-1-(4-fluorophenyl)propyl)-2-(2,6-dioxopiperidin-3-yl)-1-oxoisoindoline-5-carboxamide] |
| < 0.1 µM | * (a Y value (shown as *) of 0<Y≤20%) | O=C1CCC(N2Cc3cc(C(=O)N[C@H](c4ccc(N5CCOCC5)cc4)C(F)(F)F)ccc3C2=O)C(=O)N1 (stereo partly drawn) [Example 204, 2-(2,6-dioxopiperidin-3-yl)-1-oxo-N-((R)-2,2,2-trifluoro-1-(4-morpholinophenyl)ethyl)isoindoline-5-carboxamide] |
| < 0.1 µM | * (a Y value (shown as *) of 0<Y≤20%) | CC(C)[C@H](NC(=O)c1ccc2c(c1)CN(C1CCC(=O)NC1=O)C2=O)c1ccccc1Cl (stereo partly drawn) [Example 169, N-((S)-1-(2-chlorophenyl)-2-methylpropyl)-2-(2,6-dioxopiperidin-3-yl)-1-oxoisoindoline-5-carboxamide] |
| < 0.1 µM | * (a Y value (shown as *) of 0<Y≤20%) | O=C1CCC(N2Cc3cc(C(=O)N[C@H](c4cc(F)ccc4Cl)C(F)(F)F)ccc3C2=O)C(=O)N1 (stereo partly drawn) [Example 160, N-((R)-1-(2-chloro-5-fluorophenyl)-2,2,2-trifluoroethyl)-2-(2,6-dioxopiperidin-3-yl)-1-oxoisoindoline-5-carboxamide] |
| < 0.1 µM | * (a Y value (shown as *) of 0<Y≤20%) | O=C1CCC(N2Cc3c(ccc(C(=O)N[C@H](c4ncccc4Cl)C(F)(F)F)c3F)C2=O)C(=O)N1 (stereo partly drawn) [Example 139, N-((R)-1-(3-chloropyridin-2-yl)-2,2,2-trifluoroethyl)-2-(2,6-dioxopiperidin-3-yl)-4-fluoro-1-oxoisoindoline-5-carboxamide] |
| < 0.1 µM | * (a Y value (shown as *) of 0<Y≤20%) | Cc1ccccc1[C@@H](NC(=O)c1ccc2c(c1F)CN(C1CCC(=O)NC1=O)C2=O)C(F)(F)F (stereo partly drawn) [Example 128, 2-(2,6-dioxopiperidin-3-yl)-4-fluoro-1-oxo-N-((R)-2,2,2-trifluoro-1-o-tolylethyl)isoindoline-5-carboxamide] |
| < 0.1 µM | * (a Y value (shown as *) of 0<Y≤20%) | C[C@]1(O)CC[C@@H]([C@@H](NC(=O)c2ccc3c(c2)CN(C2CCC(=O)NC2=O)C3=O)C(F)(F)F)CC1 (stereo partly drawn) [Example 168, 2-(2,6-dioxopiperidin-3-yl)-1-oxo-N-((R)-2,2,2-trifluoro-1-((1s,4S)-4-hydroxy-4-methylcyclohexyl)ethyl)isoindoline-5-carboxamide] |
